Where a name gives a salt, the structure may show the parent alone.
Experiments:
[1] = system: alpha2 -Adrenoreceptor; settings: described by Chapleo et al.; cited from earlier work
[2] = system: Alpha 1 adrenergic receptor; experiment: Rabbit Aorta: Alpha 1 adrenergic receptor assay; settings: rabbit thoracic aorta rings, 37° C
From the text: The vasoconstrictive properties of the compounds of the present invention, i.e. their ability to reduce or control intraocular bleeding, are established by the rabbit aorta: alpha 1 adrenergic receptors in vivo assay procedure, which is recognized in the art to be indicative of the in vivo activity of the tested compounds as vaso-constrictors or as anti intraocular bleeding agents.
Thoracic aorta specimens were obtained form albino rabbits that were killed by CO2 inhalation. The aorta was cut into 3 mm rings. Tissues were placed in Krebs-Hensleit solution of the following composition (millimolar): NaCl 119; KCl 4.7; MgSO4 1.5, KH2 PO4 1.2; CaCl2 2.5; NaHCO3 25 and glucose 11.0. The solution also contained cocaine (0.1 millimolar) to block neuronal uptake and EDTA (30 micromolar) and ascorbic acid (5 micromolar) to prevent oxidation of the compound being tested. Tissues were hung in 10 ml organ baths and tension was measured via Grass FT03 force-displacement transducers. Resting tension was 2 g for the aorta. The solution was gassed with 95% O2 and 5% CO2 and maintained at 37° C. Tissues were allowed to equilibrate for 2 hours before stimulation and the cumulative addition of the compound to be tested (aryl oxazoline) was started. Tissue stimulation was performed using a square wave stimulator (WPI A310) Accupulser with A385 stimulus) at 0.1 Hz, 2 ms pulse width at 90 mA.

[3] = biological target: T1, alpha-2 adrenergic receptor (Oryctolagus cuniculus, UniProt Q5ZQK3); experiment: Rabbit Vas Deferens Assay (alpha-2 adrenergic receptor activity); set-up: species or system New Zealand white rabbit; settings: field-stimulated rabbit vas deferens, 35 degrees C, 4 minute contact time; read-out: EC50 (effective concentration required for a 50% reduction in response height)
T1 construct: The prostatic ends of the vasa deferentia (2-3 cm lengths) were mounted between platinum ring electrodes; from tissue; host or cells: prostatic ends of vasa deferentia of New Zealand white rabbits
T1 sequence (Q5ZQK3 1-451): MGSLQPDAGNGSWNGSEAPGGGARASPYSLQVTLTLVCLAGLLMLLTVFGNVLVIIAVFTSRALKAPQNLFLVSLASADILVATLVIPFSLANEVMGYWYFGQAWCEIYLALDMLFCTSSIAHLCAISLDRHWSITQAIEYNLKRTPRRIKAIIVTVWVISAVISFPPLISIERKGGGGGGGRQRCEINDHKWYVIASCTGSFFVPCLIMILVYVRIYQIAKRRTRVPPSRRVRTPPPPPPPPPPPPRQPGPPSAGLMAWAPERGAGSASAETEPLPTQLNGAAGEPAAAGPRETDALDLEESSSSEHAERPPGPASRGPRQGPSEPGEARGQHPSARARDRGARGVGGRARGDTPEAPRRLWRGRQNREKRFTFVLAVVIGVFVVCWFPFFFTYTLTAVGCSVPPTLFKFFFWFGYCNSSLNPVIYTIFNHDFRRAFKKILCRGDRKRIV
Protocol: (§1) The test procedure for alpha-2 adrenergic receptor activity of the compounds of the present invention is the rabbit vas deferens assay which is described as follows:
(§2) New Zealand white rabbits (2-3 kg) were killed by CO2 inhalation and the vasa deferentia removed. The prostatic ends of the vasa deferentia (2-3 cm lengths) were mounted between platinum ring electrodes in 9 ml organ baths and bathed in Krebs bicarbonate solution of the following composition (millimolar): NaCl 118.0; KCl 4.7; CaCl2 2.5; MgSO4 1.2; KH2 PO4 1.2; glucose 11.0; NaHCO3 25.0; which solution was maintained at 35 degrees C and bubbled with 95% O2 and 5% CO2. The initial tension of the vas deferens was 0.5 g. The tissues were left to equilibrate for 30 minutes before stimulation was started. […] Cumulative concentration-response curves were obtained for the compounds being tested with a 4 minute contact time at each concentration. The reduction in response height was measured and expressed as a percentage of the height of the response before the addition of the compounds. Concentration response curves for each of the compounds were plotted. The effective concentration required for a 50% reduction in response height, expressed as EC50 were obtained from these curves.

[4] = system: alpha-2 adrenergic receptor; experiment: as above; set-up: species or system New Zealand white rabbit; settings: for Comment (α1/α2 selectivity): Rabbit Vas Deferens table
Protocol: as §1, §2

[5] = system: intraocular pressure; experiment: intraocular pressure (anti-glaucoma) assay, topical unilateral administration; format: in vivo, monkey or New Zealand white rabbit
Protocol: The anti-glaucoma activity (ability to maintain or reduce intraocular pressure) of the compounds of the present invention is established by the following assay pressure. This assay procedure is generally recognized in the art to provide pertinent information with respect to the anti-glaucomaactivity of the formulations assayed. Thus, each of the compounds of the invention to be tested was dissolved in distilled water at a concentration of 0.3% (W/V). Each of these solutions was administered topically and unilaterally to one eye of a drugnaive, unanesthetized monkey or New Zealand white rabbit in a single 50 micro liter drop. The contralateral eye received an equal volume of saline prior to determining the intraocular pressure after the mixture was administered. Also, approximately 10 micro liters of 0.5% (W/V) proparacaine (topical anesthetic) was applied to the corneas of each of the animals before determining intraocular pressure. As a control test, six (6) other drug-naive, unanesthetized animals were treated and tested as described above except that no compound of the invention was included in the solutions administered to the eyes.
The intraocular pressure was determined in both eyes of each animal both before and after the solutions were administered. Such intraocular pressure determinations were made in the conventional manner using conventional equipment.

[6] = storage stability of solid; format: physicochemical; settings: stored in the dark at 0° C
[7] = Contralateral (Untreated) Eye, 0.3% (W/V) to the other eye
[8] = Ipsilateral (Treated) Eye, 0.3% (W/V), single 50 micro liter drop

EC50 [2] [nM] | EC50 [3] [nM] | Comment (α1/α2 selectivity) [4] | SMILES | further results
– | – | – | O=C1COc2cc(N=C3NCCN3)ccc2N1 [Example 3, 7-2(2-imino-2-imidazolidine)-3-oxo-3,4-dihydro-(2H)-1,4-benzoxazine] | alpha-2 agonist activity [1]: partial alpha-2 agonists
1120 ± 457 | 167 ± 56.1 | α2 Selective | O=C1COc2cc(N=C3NCCN3)c(Br)cc2N1 [Example 4, 6-Bromo-7-(2-imino-2-imidazolidine)-3-oxo-3,4-dihydro-(2H)-1,4-benzoxazine,hydrobromide] | –
3.41 ± 0.5 | 0.59 ± 0.14 | Non-Selective | O=C1COc2c(cc(Br)c(N=C3NCCN3)c2Br)N1 [Example 5, 6,8-dibromo-7-(2-imino-2-imidazolidine)-3-oxo-3,4-dihydro-(2H)-1,4-benzoxazine] | Comment (vasoconstrictor activity) ([4]; printed "Potent- Vasoconstrictor" on two lines): Vasoconstrictor
39 ± 6.36 | > 10000 | α1 Selective | Brc1cc2c(cc1N=C1NCCN1)OCCN2 [Example 7, 6-bromo-7-(2-imino-2-imidazolidine)-3,4-dihydro-(2H)-1,4-benzoxazine] | –
– | – | – | O=C1COc2ccc(N=C3NCCN3)cc2N1 [Example 12, 6-(2-imino-2-imidazlidine)-3-oxo-3,4-dihydro-(2H)-1,4-benzoxazine] | alpha-2 agonist activity [1]: partial alpha-2 agonists
> 100000 | 48.5 ± 20.6 | α2 Selective | O=C1COc2cc(Br)c(N=C3NCCN3)c(Br)c2N1 [Example 14, 5,7-dibromo-6-(2-imino-2-imidazolidine)-3-oxo-3,4-dihydro-2H-1,4-benzoxazin] | –
1430 ± 891 | 105 ± 35.5 | α2 Selective | CN1C(=O)COc2cc(N=C3NCCN3)c(Br)cc21 [Example 22, 4-methyl-6-bromo-7-(2-imino-imidazolidine)-3-oxo-3,4-dihydro-2H-1,4-benzoxazinehydrobromide] | Duration of IOP decrease [5, 7]: 1 h; Maximum Difference in Intraocular Pressure After Solution Administration, % Decrease in IOP from Control [5, 7]: 5.7 ± 2.0%; Duration of IOP decrease [5, 8]: 1 to 2 h; Maximum Difference in Intraocular Pressure After Solution Administration, % Decrease in IOP from Control [5, 8]: 11.5 ± 2.7%
2740 ± 1430 | 41.5 ± 24.4 | α2 Selective | CN1C(=O)COc2cc(Br)c(N=C3NCCN3)cc21 [Example 31, 7-bromo-4-methyl-6-(2-imino-imidazolidine)-3-oxo-3,4-dihydro-(2H)-1,4-benzoxazine] | Duration of IOP decrease [5, 7]: 1 h; Maximum Difference in Intraocular Pressure After Solution Administration, % Decrease in IOP from Control [5, 7]: 6.8 ± 1.8%; Duration of IOP decrease [5, 8]: 1 to 6 h; Maximum Difference in Intraocular Pressure After Solution Administration, % Decrease in IOP from Control [5, 8]: 14 ± 2.5%
5690 ± 956 | 74.6 ± 43.6 | α2 Selective | Cc1cc2c(cc1N=C1NCCN1)NC(=O)CO2 [Example 39, 7-methyl-6(2-imino-2-imidazolidine)-3-oxo-3,4-dihydro-(2H)-1,4-benzoxazine] | –
940 ± 18.5 | 8.92 ± 3.11 | α2 Selective | CCc1cc2c(cc1N=C1NCCN1)NC(=O)CO2 [Example 50, 7-Ethyl-6-(2-imino-2-imidazolidine)-3-oxo-3,4-dihydro-(2H)-1,4-benzoxazine] | –
1120 ± 94.1 | 18.1 ± 1.21 | α2 Selective | CCCc1c(N=C2NCCN2)ccc2c1NC(=O)CO2 [Example 56, 5-Propyl-6-(2-imino-2-imidazolidine)-3-oxo-3,4-dihydro-(2H)-1,4-benzoxazine] | –
– | – | – | O=S(=O)(O)C1=NCCN1 [Imidazoline-2-sulfonic acid] | stability of solid on storage [6]: at least 6 months
